Measurements published in ChEMBL document CHEMBL3774331, “Inhibition of tau aggregation using a naturally-occurring cyclic peptide scaffold” (Eur J Med Chem, 2016).
Activity calls are given as the source filed them. The calls are words filed in the database; no cut-off is given here. Where a SMILES comes first, the peptide text is derived from it. Bridges are numbered along the chain shown (N, C = ends).

What was measured:
[1] = Inhibition of TAU derived synthetic hexapeptide AcPHF6 fibril formation at compound:AcPHF6 ratio of 1:1 to 1:64 incubated for 60 mins by thioflavin S fluorescence assay
[2] = Inhibition of TAU derived synthetic hexapeptide AcPHF6 fibril formation incubated for 60 mins by thioflavin T fluorescence assay
Serum = assay: Stability in 100% human serum at 30 uM after 24 hrs; assay type: ADME
[3] = Binding affinity to thioflavin S at compound:AcPHF6 ratio of 1:1 to 1:64 incubated for 120 mins by fluorescence assay
[4] = Activation of TAU derived synthetic hexapeptide AcPHF6 fibril formation at compound:AcPHF6 ratio of 1:1 to 1:64 incubated for 60 mins by thioflavin S fluorescence assay

Compound	inhibition [1]	further results
CC[C@H](C)[C@@H]1NC(=O)[C@H](CCC(N)=O)NC(=O)[C@H](C(C)C)NC(=O)CNC(=O)[C@H]2CCCN2C(=O)[C@H](C(C)C)NC(=O)[C@H](CCC(N)=O)NC(=O)[C@H]([C@@H](C)CC)NC(=O)[C@@H]2CSSC[C@H](NC1=O)C(=O)N[C@@H](Cc1ccc(O)cc1)C(=O)N[C@@H](CCCCN)C(=O)N[C@@H](CO)C(=O)N[C@@H]([C@@H](C)CC)C(=O)N1CCC[C@H]1C(=O)N1CCC[C@H]1C(=O)N[C@@H]([C@@H](C)CC)C(=O)N2	Active	–
CC[C@H](C)[C@@H]1NC(=O)[C@@H]2CCCN2C(=O)[C@@H]2CCCN2C(=O)[C@H]([C@@H](C)CC)NC(=O)[C@H](CO)NC(=O)[C@H](CCCCN)NC(=O)[C@H]([C@@H](C)O)NC(=O)[C@H](C)NC(=O)[C@H](CCCNC(=N)N)NC(=O)CNC(=O)[C@H](CC(=O)O)NC(=O)[C@@H]2CCCN2C(=O)[C@H](Cc2ccccc2)NC(=O)[C@H](C)NC1=O (cyclo(AFPDGRATKSIPPI))	Active	–
CC[C@H](C)[C@@H]1NC(=O)[C@H](CCC(N)=O)NC(=O)[C@H](C(C)C)NC(=O)CNC(=O)[C@H]2CCCN2C(=O)[C@H](C(C)C)NC(=O)[C@H](C)NC(=O)[C@H](Cc2ccccc2)NC(=O)[C@@H]2CSSC[C@H](NC1=O)C(=O)N[C@@H](Cc1ccc(O)cc1)C(=O)N[C@@H](CCCCN)C(=O)N[C@@H](CO)C(=O)N[C@@H]([C@@H](C)CC)C(=O)N1CCC[C@H]1C(=O)N1CCC[C@H]1C(=O)N[C@@H]([C@@H](C)CC)C(=O)N2	Active	–
CC(C)C[C@H](NC(=O)CN)C(=O)N1CCC[C@H]1C(=O)N[C@H](C(=O)N[C@@H]1CSSC[C@H]2NC(=O)CNC(=O)[C@@H]3CCCN3C(=O)[C@H]([C@@H](C)O)NC(=O)[C@@H](CC(N)=O)NC(=O)[C@H]3CSSC[C@H](C(=O)N[C@@H](C(=O)N[C@H](CCCNC(=N)N)C(=O)N[C@@H](CC(N)=O)C(=O)O)[C@@H](C)O)NC(=O)[C@H](C(C)C)NC(=O)[C@H]4CCCN4C(=O)[C@@H](Cc4c[nH]c5ccccc45)NC(=O)[C@H](CO)NC(=O)[C@@H](CSSC[C@@H](NC(=O)[C@@H]([C@@H](C)O)NC(=O)[C@@H](CCC(=O)O)NC(=O)CNC1=O)C(=O)N[C@@H](C(C)C)C(=O)NCC(=O)NCC(=O)N[C@@H]([C@@H](C)O)C(=O)N3)NC(=O)[C@@H]([C@H](C)O)NC2=O)C(C)C	Active	–
CC[C@H](C)[C@@H]1NC(=O)[C@H](CCC(N)=O)NC(=O)[C@H](C(C)C)NC(=O)CNC(=O)[C@H]2CCCN2C(=O)[C@H](C(C)C)NC(=O)[C@H](C)N(C)C(=O)[C@H]([C@@H](C)CC)NC(=O)[C@@H]2CSSC[C@H](NC1=O)C(=O)N[C@@H](Cc1ccc(O)cc1)C(=O)N[C@@H](CCCCN)C(=O)N[C@@H](CO)C(=O)N[C@@H]([C@@H](C)CC)C(=O)N1CCC[C@H]1C(=O)N1CCC[C@H]1C(=O)N[C@@H]([C@@H](C)CC)C(=O)N2	–	inhibition [2]: Dose-dependent effect
CC[C@H](C)[C@@H]1NC(=O)[C@H](C)NC(=O)CNC(=O)[C@@H]2CCCN2C(=O)[C@@H]2CCCN2C(=O)[C@H]([C@@H](C)CC)NC(=O)[C@H](CO)NC(=O)[C@H](CCCCN)NC(=O)[C@H](Cc2ccc(O)cc2)NC(=O)[C@H](C)NC(=O)[C@H]([C@@H](C)CC)NC(=O)[C@H](CCC(N)=O)NC(=O)[C@H](C(C)C)NC(=O)CNC(=O)[C@H](CC(=O)O)NC(=O)[C@@H]2CCCN2C(=O)[C@H](C(C)C)NC(=O)[C@H](CCCCN)NC1=O (cyclo(AIKVPDGVQIAYKSIPPG))	Active	Stability (Serum): Stable
CC[C@H](C)[C@@H]1NC(=O)[C@@H]2CSSC[C@H](NC(=O)[C@H]([C@@H](C)CC)NC(=O)[C@H](CCC(N)=O)NC(=O)[C@H](C(C)C)NC(=O)CNC(=O)[C@H]3CCCN3C(=O)[C@H](C(C)C)NC(=O)[C@H](C)NC1=O)C(=O)N[C@@H](Cc1ccc(O)cc1)C(=O)N[C@@H](CCCCN)C(=O)N[C@@H](CO)C(=O)N[C@@H]([C@@H](C)CC)C(=O)N1CCC[C@H]1C(=O)N1CCC[C@H]1C(=O)N[C@@H]([C@@H](C)CC)C(=O)N2	Active	–
CC[C@H](C)[C@@H]1NC(=O)[C@H](CCC(N)=O)NC(=O)[C@H](C(C)C)NC(=O)CNC(=O)[C@H](CC(=O)O)NC(=O)[C@@H]2CCCN2C(=O)[C@H](C(C)C)NC(=O)[C@H](CCCCN)NC(=O)[C@H]([C@@H](C)CC)NC(=O)[C@@H]2CSSC[C@H](NC1=O)C(=O)N[C@@H](Cc1ccc(O)cc1)C(=O)N[C@@H](CCCCN)C(=O)N[C@@H](CO)C(=O)N[C@@H]([C@@H](C)CC)C(=O)N1CCC[C@H]1C(=O)N1CCC[C@H]1C(=O)NCC(=O)N2 (cyclo(CIKVPDGVQICYKSIPPG); disulfide 1-11)	Active	Stability (Serum): Stable
CC[C@H](C)[C@@H]1NC(=O)[C@H](CCC(N)=O)NC(=O)[C@H](C(C)C)NC(=O)CNC(=O)[C@H](CC(=O)O)NC(=O)[C@@H]2CCCN2C(=O)[C@H](C(C)C)NC(=O)[C@H](CCCCN)NC(=O)[C@H]([C@@H](C)CC)NC(=O)[C@@H]2CSSC[C@H](NC1=O)C(=O)N[C@@H](Cc1ccc(O)cc1)C(=O)N[C@@H](CCCCN)C(=O)N[C@@H](CO)C(=O)N[C@@H]([C@@H](C)CC)C(=O)N1CCC[C@H]1C(=O)N1CCC[C@H]1C(=O)N[C@@H]([C@@H](C)CC)C(=O)N2 (cyclo(CIKVPDGVQICYKSIPPI); disulfide 1-11)	Active	–
CC(C)[C@H](NC(=O)CN)C(=O)N[C@H]1CSSC[C@@H](C(=O)N[C@@H](CCCNC(=N)N)C(=O)N[C@@H](CCCNC(=N)N)C(=O)O)NC(=O)[C@@H](C(C)C)NC(=O)C2CSSCC(NC(=O)[C@H](CCCNC(=N)N)NC1=O)C(=O)N[C@@H](C(C)C)C(=O)N[C@H]1CSSC[C@H](NC(=O)[C@H](C(C)C)NC(=O)CNC(=O)[C@H](CCCNC(=N)N)NC(=O)[C@H](CCCNC(=N)N)NC1=O)C(=O)N[C@@H](CCCNC(=N)N)C(=O)N2	–	Activity [3]: Active; Activity [4]: Active
CC[C@H](C)[C@@H]1NC(=O)[C@H](CCC(=O)O)NC(=O)[C@@H]2CCCN2C(=O)[C@H](Cc2cnc[nH]2)NC(=O)[C@H](CC(=O)O)NC(=O)[C@H](Cc2ccc(O)cc2)NC(=O)[C@H](CC(N)=O)NC(=O)[C@H]2CSSC[C@H](NC(=O)CN)C(=O)N[C@@H](CSSC[C@@H](C(=O)NCC(=O)NCC(=O)N[C@@H](C)C(=O)NCC(=O)NCC(=O)O)NC1=O)C(=O)N[C@H](CO)C(=O)N[C@@H](CC(=O)O)C(=O)N1CCC[C@H]1C(=O)N[C@H](CCCNC(=N)N)C(=O)N2	inactive	–
CC[C@H](C)[C@@H]1NC(=O)[C@H](CCC(N)=O)NC(=O)[C@H](C(C)C)NC(=O)CNC(=O)[C@H]2CCCN2C(=O)[C@H](C(C)C)NC(=O)[C@H](CCCCN)NC(=O)[C@H]([C@@H](C)CC)NC(=O)[C@@H]2CSSC[C@H](NC1=O)C(=O)N[C@@H](Cc1ccc(O)cc1)C(=O)N[C@@H](CCCCN)C(=O)N[C@@H](CO)C(=O)N[C@@H]([C@@H](C)CC)C(=O)N1CCC[C@H]1C(=O)N1CCC[C@H]1C(=O)NCC(=O)N2	Active	–
CC[C@@H](C)[C@@H]1NC(=O)[C@@H]2CSSC[C@H](NC(=O)[C@@H]([C@H](C)CC)NC(=O)CNC(=O)[C@H]3CCCN3C1=O)C(=O)N[C@H](Cc1ccc(O)cc1)C(=O)N[C@H](CCCCN)C(=O)N[C@H](CO)C(=O)N[C@H]([C@H](C)CC)C(=O)N1CCC[C@H]1C(=O)N1CCC[C@H]1C(=O)NCC(=O)N2	Active	–
CC[C@H](C)[C@@H]1NC(=O)[C@@H]2CCCN2C(=O)[C@@H]2CCCN2C(=O)[C@H]([C@@H](C)CC)NC(=O)[C@H](CO)NC(=O)[C@H](C)NC(=O)[C@H]([C@@H](C)O)NC(=O)[C@@H]2CSSC[C@H](NC1=O)C(=O)N[C@@H](Cc1ccccc1)C(=O)N1CCC[C@H]1C(=O)N[C@@H](CC(=O)O)C(=O)NCC(=O)N[C@@H](CCCNC(=N)N)C(=O)N2 (cyclo(ASIPPICFPDGRCT); disulfide 7-13)	Active	–
CC[C@@H](C)[C@H]1NC(=O)[C@@H]2CCCN2C(=O)[C@@H]2CCCN2C(=O)[C@H]([C@@H](C)CC)NC(=O)[C@H](CO)NC(=O)[C@H](CC(N)=O)NC(=O)[C@H](CCC(=O)O)NC(=O)[C@@H]2CSSC[C@H](NC1=O)C(=O)N[C@@H](CCC(N)=O)C(=O)N[C@H](CCCCN)C(=O)N[C@H](CC(C)C)C(=O)N1CCC[C@H]1C(=O)N[C@H](CC(=O)O)C(=O)NCC(=O)N[C@H](CC(C)C)C(=O)N[C@@H](Cc1ccc(O)cc1)C(=O)N[C@H](CCC(N)=O)C(=O)N2	Active	–
CC[C@H](C)[C@@H]1NC(=O)[C@H](CCC(N)=O)NC(=O)[C@H](C(C)C)NC(=O)CNC(=O)[C@H]2CCCN2C(=O)[C@H](C(C)C)NC(=O)[C@H](C)N(C)C(=O)[C@H]([C@@H](C)CC)NC(=O)[C@H](C)NC(=O)[C@H]([C@@H](C)CC)NC(=O)[C@@H]2CCCN2C(=O)[C@@H]2CCCN2C(=O)[C@H]([C@@H](C)CC)NC(=O)[C@H](CO)NC(=O)[C@H](CCCCN)NC(=O)[C@H](Cc2ccc(O)cc2)NC(=O)[C@H](C(C)C)NC1=O	Active	–
CC[C@H](C)[C@@H]1NC(=O)[C@@H]2CCCN2C(=O)[C@@H]2CCCN2C(=O)[C@H]([C@@H](C)CC)NC(=O)[C@H](CO)NC(=O)[C@H](Cc2ccccc2)NC(=O)[C@H](CC(N)=O)NC(=O)[C@@H]2CSSC[C@H](NC1=O)C(=O)N[C@@H](CCC(N)=O)C(=O)N[C@@H](CCCCN)C(=O)N[C@@H](CO)C(=O)N1CCC[C@H]1C(=O)N[C@@H](CC(=O)O)C(=O)NCC(=O)N[C@@H](CO)C(=O)N[C@@H](CC(N)=O)C(=O)N[C@@H](CCC(N)=O)C(=O)N2 (cyclo(CNFSIPPICQKSPDGSNQ); disulfide 1-9)	Active	–
CC[C@H](C)[C@@H]1NC(=O)[C@@H]2CSSC[C@H](NC(=O)[C@H]([C@@H](C)CC)NC(=O)[C@H](CCC(N)=O)NC(=O)[C@@H]3CCCN3C(=O)[C@@H]3CCCN3C(=O)[C@H](C)NC1=O)C(=O)N[C@@H](Cc1ccc(O)cc1)C(=O)N[C@@H](CCCCN)C(=O)N[C@@H](CO)C(=O)N[C@@H]([C@@H](C)CC)C(=O)N1CCC[C@H]1C(=O)N1CCC[C@H]1C(=O)NCC(=O)N2 (cyclo(APPQICYKSIPPGCI); disulfide 6-14)	Active	–
